Source: patent US5129951A, “Aromatic aldehydes and alcohols as potato tuber sprout inhibitors” (priority 1991, dated 1992)
Entries after “also recorded” stand apart in the source; their conditions may differ. Read-outs that look alike come from different tables or passages of the source.

How the values were obtained:
[1] = Theoretical saturated headspace concentration calculated from known vapor pressures; assay type: physicochemical; conditions: calculated from known vapor pressures by Ideal Gas Law
Protocol: Because these compounds were difficult to quantitate by gas chromatography at the concentration levels in saturated headspaces, theoretical saturated concentrations were calculated by converting known vapor pressures of each compound at 25° C. to molar concentrations using the Ideal Gas Law, […], where n/V is the molar concentration, P is the partial pressure (atm), R is the Ideal Gas constant (0.0821 l atm/mol ° K.), and T is the temperature (° K.).

[2] = system: potato tubers; assay: Sprout inhibition of tubers exposed to compounds in headspace gas for 7 days (Example 1); assay type: in vivo, Solanum tuberosum L. cv `Norchip`; conditions: 7 days in saturated headspace gas, 25° C.; for % Eyes Sprouted: dark, control 100, LSD (0.05) 12
[3] = system: fungi; assay: Fungal growth on tubers exposed to compounds in headspace gas for 7 days (Example 1); assay type: in vivo; conditions: 7 days in saturated headspace gas, 25° C.; for Fungal Growth: control ++; on Fungal growth: key: -: no fungi visible; +: = some fungi; ++: heavy fungal growth
Excerpt: (control flasks lacked any compounds).

[4] = system: potato tubers; assay: Tuber sprouting after removal from exposure to volatilized aromatics for 1, 2, 4, 7 or 10 days (Example 2); assay type: in vivo, Solanum tuberosum L. cv `Norchip`; conditions: 14 days after removal; for % Eyes Sprouted: 25° C., LSD (0.05) 24
Protocol: (§1) Each treatment consisted of placing the tubers in sealed 9.2 l flasks containing excess levels of the treatment compounds at 25° C. as in Example 1. Three tubers were then removed from each treatment after 1, 2, 4, 7, and 10 days, and placed in flasks containing fresh humidified air (free of any additional volatilized compounds) at 25° C. Control tubers were placed in sealed flasks lacking any added compounds and three were removed after 1 and 10 days. Fourteen days after removal from the sealed flasks containing treatment compounds, all tubers were examined for percentage of eyes sprouted, tuber texture, and fungal growth. Each treatment was replicated once and each experiment was repeated once.

[5] = system: fungi; assay: Fungal growth on tubers after removal from exposure to volatilized aromatics (Example 2); assay type: in vivo; conditions: 14 days after removal
Protocol: as §1

[6] = system: potato tubers; assay: Tuber texture after removal from exposure to volatilized aromatics (Example 2); assay type: in vivo, Solanum tuberosum L. cv `Norchip`
Protocol: as §1

[7] = system: potato tubers; assay: Tuber sprouting 14 days after direct application of aromatic compounds (Example 3); assay type: in vivo, Solanum tuberosum L. cv `Norchip`; conditions: for % Eyes Sprouted: 25° C., control 98, LSD (0.05) 14
[8] = system: fungi; assay: Fungal growth 14 days after direct application of aromatic compounds (Example 3); assay type: in vivo
[9] = system: potato tubers; assay: Tuber sprouting after removal from exposure to volatilized aromatics for 1, 2, 4, 7 or 10 days (Example 2); assay type: in vivo, Solanum tuberosum L. cv `Norchip`; conditions: exposure for 10 days, 75 days after removal
[10] = cited from earlier work; for Temperature at Which Vapor Pressure Equals 1 mm Hg: vapor pressure 1 mm Hg
[11] = system: potato tubers; assay: Tuber texture/quality after exposure to compounds in headspace gas for 7 days (Example 1); conditions: 7 days in saturated headspace gas, 25° C.
[12] = system: potato tubers; assay: Tuber texture and quality 14 days after direct application of aromatic compounds (Example 3)
[13] = system: plants; conditions: Putnam and Tang; cited from earlier work
[14] = system: potato tubers; conditions: in vivo
[15] = system: potato tubers; conditions: in vivo; remark: listed apart in the source

Compound	Concentration of Saturated Headspace at 25° C. [1] [µM]	effect on tuber sprouting [2]	% Eyes Sprouted [2] [%]	effect on fungal growth [3]	Fungal Growth [3]	% Eyes Sprouted ([4]; 1 day exposure, control 96) [%]	% Eyes Sprouted ([4]; 2 days exposure) [%]	% Eyes Sprouted ([4]; 4 days exposure) [%]	% Eyes Sprouted ([4]; 7 days exposure) [%]	% Eyes Sprouted ([4]; 10 days exposure, control 100) [%]	inhibition of tuber sprouting ([4]; exposure for 7 or fewer days)	inhibition of tuber sprouting ([4]; exposure for 10 days)	Fungal Growth ([5]; 7 days exposure)	Fungal Growth ([5]; 10 days exposure, control +)	% Eyes Sprouted ([7]; 1% emulsion (dip)) [%]	% Eyes Sprouted ([7]; 10% emulsion (dip)) [%]	Fungal Growth ([8]; 10% emulsion (dip), control +)	Temperature at Which Vapor Pressure Equals 1 mm Hg [10] [°C]	Solubility in Water at 25° C. [10]	tuber condition [11]	further results
O=Cc1ccccc1 [Benzaldehyde]	48	completely inhibited sprouting	0	prevented any visible fungal growth	-	88	42	14	2	0	did not completely inhibit sprouting	completely inhibited sprouting	-	-	43	0	++	26.2	sl. soluble	firm and appeared healthy	Fungal Growth ([5]; 1 day exposure, control +): -; Fungal Growth ([5]; 2 days exposure): -; Fungal Growth ([5]; 4 days exposure): -; tuber firmness ([6]; 1 day treatment, 14 days after removal): slightly soft; inhibition of sprouting ([7]; 10% emulsion): completely inhibited sprouting without damaging the potato tubers; % Eyes Sprouted ([7]; 100% (pure, sprayed)): 0%; Fungal Growth ([8]; 10% emulsion): heavily covered with fungal growth; Fungal Growth ([8]; 100% (pure, sprayed), control +): ++; sprouting [9]: remained unsprouted; tuber condition ([12]; 10% emulsion): remained hard, with no necrosis or surface pitting; Tuber Texture ([12]; 100% (pure, sprayed), control SS): S,N
O=C(O)c1ccccc1 [Benzoic acid]	0.1	no significant effect on tuber sprouting; also recorded: little or no inhibition of sprouting	98	present to some extent	+													96.0		soft to the touch	reported allelopathy [13]: allelopathic
OCC=Cc1ccccc1 [Cinnamyl alcohol]	2.4	no significant effect on tuber sprouting	91	present to some extent	+														soluble		tuber condition [14]: slightly soft
CC=Cc1ccc(O)c(OC)c1 [Isoeugenol]	1.3	no significant effect on tuber sprouting	89	especially heavy growth	++																tuber condition [14]: remained firm
Cc1ccc(C(C)C)c(O)c1 [Thymol]	2.9	completely inhibited sprouting	0	prevented any visible fungal growth	-	83	60	44	6	0	did not completely inhibit sprouting	completely inhibited sprouting	-	-	0	0	-			firm and appeared healthy	tuber firmness ([6]; in vivo): slightly soft; inhibition of sprouting ([7]; 1% emulsion): suppressed sprouting; Fungal Growth ([8]; 1% emulsion (dip), control +): -; tuber condition [15]: large pitted areas on the tuber surface near each eye
COc1cc(C=O)ccc1O [Vanillin]	0.1	only slightly suppressed sprouting; also recorded: little or no inhibition of sprouting	87	present to some extent	+													107.0	sl. soluble		reported allelopathy [13]: allelopathic
